Laboratory results as given in ChEMBL document CHEMBL1649268, “Comparative in vitro activity profile of oritavancin against recent gram-positive clinical isolates” (2009).

Legend:
[1] = system: Streptococcus pneumoniae; assay: Antimicrobial activity against Streptococcus pneumoniae clinical isolates assessed as resistant isolates by broth microdilution method; assay type: functional
[2] = system: Enterococcus faecium; assay: Antimicrobial activity against Enterococcus faecium clinical isolates assessed as percent susceptible isolates by broth microdilution method; assay type: functional
[3] = system: Streptococcus pneumoniae; assay: Antimicrobial activity against penicillin-intermediate Streptococcus pneumoniae clinical isolates assessed as resistant isolates by broth microdilution method; assay type: functional
[4] = system: Enterococcus faecium; assay: Antimicrobial activity against Enterococcus faecium expressing VanA gene clinical isolates assessed as percent susceptible isolates by broth microdilution method; assay type: functional
[5] = system: Enterococcus faecium; assay: Antimicrobial activity against vancomycin-nonsusceptible Enterococcus faecium clinical isolates assessed as percent susceptible isolates by broth microdilution method; assay type: functional
[6] = system: Enterococcus faecium; assay: Antimicrobial activity against Enterococcus faecium clinical isolates assessed as resistant isolates by broth microdilution method; assay type: functional
[7] = Antimicrobial activity against erythromycin-nonsusceptible Streptococcus Group C clinical isolates assessed as resistant isolates by broth microdilution method; assay type: functional, Streptococcus sp. 'group C'
[8] = system: Streptococcus pyogenes; assay: Antimicrobial activity against erythromycin-susceptible Streptococcus pyogenes clinical isolates assessed as resistant isolates by broth microdilution method; assay type: functional
[9] = system: Enterococcus faecalis; assay: Antimicrobial activity against Enterococcus faecalis expressing VanA gene clinical isolates by broth microdilution method; assay type: functional
[10] = Antimicrobial activity against Streptococcus Group G clinical isolates assessed as resistant isolates by broth microdilution method; assay type: functional, Streptococcus sp. 'group G'
[11] = system: Enterococcus faecium; assay: Antimicrobial activity against vancomycin-nonsusceptible Enterococcus faecium clinical isolates assessed as resistant isolates by broth microdilution method; assay type: functional
[12] = Antimicrobial activity against erythromycin-nonsusceptible Streptococcus Group G clinical isolates assessed as resistant isolates by broth microdilution method; assay type: functional, Streptococcus sp. 'group G'
[13] = system: Enterococcus faecalis; assay: Antimicrobial activity against Enterococcus faecalis clinical isolates assessed as percent susceptible isolates by broth microdilution method; assay type: functional
[14] = system: Enterococcus faecalis; assay: Antimicrobial activity against Enterococcus faecalis expressing VanB gene clinical isolates assessed as resistant isolates by broth microdilution method; assay type: functional
[15] = system: Enterococcus faecium; assay: Antimicrobial activity against vancomycin-susceptible Enterococcus faecium clinical isolates assessed as percent susceptible isolates by broth microdilution method; assay type: functional
[16] = system: Streptococcus pyogenes; assay: Antimicrobial activity against erythromycin-nonsusceptible Streptococcus pyogenes clinical isolates assessed as resistant isolates by broth microdilution method; assay type: functional
[17] = system: Streptococcus pneumoniae; assay: Antimicrobial activity against penicillin-susceptible Streptococcus pneumoniae clinical isolates assessed as resistant isolates by broth microdilution method; assay type: functional
[18] = system: Enterococcus faecium; assay: Antimicrobial activity against Enterococcus faecium expressing VanB gene clinical isolates assessed as resistant isolates by broth microdilution method; assay type: functional
[19] = system: Enterococcus faecium; assay: Antimicrobial activity against Enterococcus faecium expressing VanA gene clinical isolates assessed as resistant isolates by broth microdilution method; assay type: functional
[20] = system: Enterococcus faecium; assay: Antimicrobial activity against Enterococcus faecium clinical isolates by broth microdilution method; assay type: functional
[21] = system: Enterococcus faecalis; assay: Antimicrobial activity against Enterococcus faecalis expressing VanA gene clinical isolates assessed as resistant isolates by broth microdilution method; assay type: functional
[22] = system: Streptococcus pyogenes; assay: Antimicrobial activity against Streptococcus pyogenes clinical isolates assessed as resistant isolates by broth microdilution method; assay type: functional
[23] = system: Enterococcus faecium; assay: Antimicrobial activity against Enterococcus faecium expressing VanB gene clinical isolates assessed as percent susceptible isolates by broth microdilution method; assay type: functional
[24] = system: Enterococcus faecium; assay: Antimicrobial activity against Enterococcus faecium expressing VanB gene clinical isolates by broth microdilution method; assay type: functional
[25] = system: Enterococcus faecium; assay: Antimicrobial activity against vancomycin-nonsusceptible Enterococcus faecium clinical isolates by broth microdilution method; assay type: functional
[26] = system: Enterococcus faecalis; assay: Antimicrobial activity against vancomycin-susceptible Enterococcus faecalis clinical isolates assessed as percent susceptible isolates by broth microdilution method; assay type: functional

## C[C@H]1COc2c(N3CCN(C)CC3)c(F)cc3c(=O)c(C(=O)O)cn1c23.C[C@H]1COc2c(N3CCN(C)CC3)c(F)cc3c(=O)c(C(=O)O)cn1c23.O [LEVOFLOXACIN]
[1]
  Resistant isolates: 0.9%
[2]
  Activity: 12.2%
[3]
  Percent of isolates resistant: 2.3%
[4]
  Activity: 0.2%
[5]
  Activity: 0.2%
[6]
  Activity: 85.3%
[7]
  Activity: 0%
[8]
  Activity: 0%
[9]
  MIC90: > 16 µg/mL
[10]
  Activity: 0%
[11]
  Activity: 99.8%
[12]
  Activity: 0%
[13]
  Activity: 61.2%
[14]
  Activity: 100%
[15]
  Activity: 28.3%
[16]
  Activity: 0.8%
[17]
  Percent of isolates resistant: 0.5%
[18]
  Activity: 100%
[19]
  Activity: 99.8%
[20]
  MIC90: > 16 µg/mL
[21]
  Activity: 100%
[22]
  Activity: 0.1%
[23]
  Activity: 0%
[24]
  MIC90: > 16 µg/mL
[25]
  MIC90: > 16 µg/mL
[26]
  Activity: 64.4%
